Test results from ChEMBL document CHEMBL3885861, “Open TG-GATES”.

Organism: Rattus norvegicus
Assay: Open TG-GATES - Regimen: Daily Repeat
Assay type: toxicity, organism-based, Sprague-Dawley
Parameters: regimen Daily Repeat, gender Male, age 6 weeks
Conditions: in vivo, po, route gavage; for APTT / Bas / Eos / Fbg / Hb / Ht / Lym / MCH / MCHC / MCV / Mono / Neu / PT / Plat / RBC / Ret / WBC: tissue Blood; for KIDNEY_L / KIDNEY_R / KIDNEY_TOTAL: tissue Kidney; for LIVER: tissue Liver; for A/G / ALP / ALT / AST / BUN / CRE / Ca / Cl / DBIL / GLC / IP / K / LDH / Na / PL / RALB / TBIL / TC / TG / TP / gamma-GTP: tissue Plasma
[1] = 0 mg/kg, 72 h, dose level Control, time 3 day
[2] = 0 mg/kg, […], dose level Control, time 7 day
[3] = 0 mg/kg, […], dose level Control, time 14 day
[4] = 0 mg/kg, […], dose level Control, time 28 day
[5] = 100 mg/kg, 72 h, dose level Low, time 3 day
[6] = 100 mg/kg, […], dose level Low, time 7 day
[7] = 100 mg/kg, […], dose level Low, time 14 day
[8] = 100 mg/kg, […], dose level Low, time 28 day

COc1ccc(Cl)cc1C(=O)NCCc1ccc(S(=O)(=O)NC(=O)NC2CCCCC2)cc1 [GLYBURIDE]
TERMINAL_BW [1]: 234.5 g
APTT [1]: 19.1 s
Bas [1]: 0%
Eos [1]: 0.8%
Fbg [1]: 225.4 mg/dL
Hb [1]: 13.3 g/dL
Ht [1]: 39.9%
Lym [1]: 81.6%
MCH [1]: 21.1 pg
MCHC [1]: 33.2%
MCV [1]: 63.5 fL
Mono [1]: 2.6%
Neu [1]: 14.6%
PT [1]: 12.1 s
Plat [1]: 124.6 x10_4/uL
RBC [1]: 628.4 x10_4/ul
Ret [1]: 6.8%
WBC [1]: 86.4 x10_2/uL
KIDNEY_L [1]: 1 g
KIDNEY_R [1]: 1 g
KIDNEY_TOTAL [1]: 2 g
LIVER [1]: 11.7 g
A/G [1]: 1.7
ALP [1]: 939.6 IU/L
ALT [1]: 43.2 IU/L
AST [1]: 66.4 IU/L
BUN [1]: 15.2 mg/dL
CRE [1]: 0.4 mg/dL
Ca [1]: 10.9 mg/dL
Cl [1]: 102.4 meq/L
DBIL [1]: 0.1 mg/dL
GLC [1]: 207 mg/dL
IP [1]: 7.4 mg/dL
K [1]: 4.2 meq/L
LDH [1]: 159.2 IU/L
Na [1]: 141 meq/L
PL [1]: 160.2 mg/dL
RALB [1]: 3.5 g/dL
TBIL [1]: 0.2 mg/dL
TC [1]: 86 mg/dL
TG [1]: 92.6 mg/dL
TP [1]: 5.6 g/dL
gamma-GTP [1]: 1.4 IU/L
TERMINAL_BW [2]: 268.9 g
TERMINAL_BW [3]: 320.1 g
TERMINAL_BW [4]: 406.6 g
APTT [2]: 18.2 s
Bas [2]: 0%
Eos [2]: 0.8%
Fbg [2]: 217.8 mg/dL
Hb [2]: 13.7 g/dL
Ht [2]: 40.6%
Lym [2]: 79.8%
MCH [2]: 21.2 pg
MCHC [2]: 33.7%
MCV [2]: 63 fL
Mono [2]: 2.8%
Neu [2]: 16.2%
PT [2]: 12.4 s
Plat [2]: 121.3 x10_4/uL
RBC [2]: 644.2 x10_4/ul
Ret [2]: 5.5%
WBC [2]: 115 x10_2/uL
APTT [3]: 21.1 s
Bas [3]: 0%
Eos [3]: 0.6%
Fbg [3]: 223.6 mg/dL
Hb [3]: 14.1 g/dL
Ht [3]: 41%
Lym [3]: 79.8%
MCH [3]: 20.1 pg
MCHC [3]: 34.3%
MCV [3]: 58.5 fL
Mono [3]: 2.6%
Neu [3]: 16.4%
PT [3]: 12.2 s
Plat [3]: 122.3 x10_4/uL
RBC [3]: 701 x10_4/ul
Ret [3]: 4.3%
WBC [3]: 124.8 x10_2/uL
APTT [4]: 19.9 s
Bas [4]: 0%
Eos [4]: 1%
Fbg [4]: 211 mg/dL
Hb [4]: 15.1 g/dL
Ht [4]: 43.1%
Lym [4]: 83.8%
MCH [4]: 20.1 pg
MCHC [4]: 35.1%
MCV [4]: 57.2 fL
Mono [4]: 2%
Neu [4]: 12.8%
PT [4]: 12.3 s
Plat [4]: 100.6 x10_4/uL
RBC [4]: 753.2 x10_4/ul
Ret [4]: 2.8%
WBC [4]: 133.4 x10_2/uL
KIDNEY_L [2]: 1.2 g
KIDNEY_R [2]: 1.2 g
KIDNEY_TOTAL [2]: 2.3 g
KIDNEY_L [3]: 1.2 g
KIDNEY_R [3]: 1.3 g
KIDNEY_TOTAL [3]: 2.5 g
KIDNEY_L [4]: 1.3 g
KIDNEY_R [4]: 1.4 g
KIDNEY_TOTAL [4]: 2.7 g
LIVER [2]: 12.7 g
LIVER [3]: 14 g
LIVER [4]: 17.3 g
A/G [2]: 1.5
ALP [2]: 926.8 IU/L
ALT [2]: 36.6 IU/L
AST [2]: 59.8 IU/L
BUN [2]: 16.8 mg/dL
CRE [2]: 0.4 mg/dL
Ca [2]: 10.8 mg/dL
Cl [2]: 102.8 meq/L
DBIL [2]: 0.1 mg/dL
GLC [2]: 217 mg/dL
IP [2]: 7.3 mg/dL
K [2]: 3.9 meq/L
LDH [2]: 129.6 IU/L
Na [2]: 141.6 meq/L
PL [2]: 152 mg/dL
RALB [2]: 3.3 g/dL
TBIL [2]: 0.2 mg/dL
TC [2]: 71.6 mg/dL
TG [2]: 128.2 mg/dL
TP [2]: 5.5 g/dL
gamma-GTP [2]: 1 IU/L
A/G [3]: 1.5
ALP [3]: 785.6 IU/L
ALT [3]: 36.2 IU/L
AST [3]: 62.6 IU/L
BUN [3]: 14 mg/dL
CRE [3]: 0.5 mg/dL
Ca [3]: 10.7 mg/dL
Cl [3]: 102.6 meq/L
DBIL [3]: 0.1 mg/dL
GLC [3]: 199.8 mg/dL
IP [3]: 6.6 mg/dL
K [3]: 4 meq/L
LDH [3]: 154.6 IU/L
Na [3]: 140.4 meq/L
PL [3]: 155.2 mg/dL
RALB [3]: 3.6 g/dL
TBIL [3]: 0.2 mg/dL
TC [3]: 74.6 mg/dL
TG [3]: 104.8 mg/dL
TP [3]: 6 g/dL
gamma-GTP [3]: 1.2 IU/L
A/G [4]: 1.5
ALP [4]: 561.8 IU/L
ALT [4]: 31.4 IU/L
AST [4]: 60 IU/L
BUN [4]: 16.8 mg/dL
CRE [4]: 0.5 mg/dL
Ca [4]: 10.5 mg/dL
Cl [4]: 103.8 meq/L
DBIL [4]: 0.1 mg/dL
GLC [4]: 214 mg/dL
IP [4]: 6.6 mg/dL
K [4]: 3.9 meq/L
LDH [4]: 143.2 IU/L
Na [4]: 141.2 meq/L
PL [4]: 143.8 mg/dL
RALB [4]: 3.5 g/dL
TBIL [4]: 0.2 mg/dL
TC [4]: 75.4 mg/dL
TG [4]: 91.2 mg/dL
TP [4]: 5.9 g/dL
gamma-GTP [4]: 0.8 IU/L
TERMINAL_BW [5]: 227.4 g
APTT [5]: 20.1 s
Bas [5]: 0%
Eos [5]: 1%
Fbg [5]: 222.4 mg/dL
Hb [5]: 13.6 g/dL
Ht [5]: 40.3%
Lym [5]: 83%
MCH [5]: 21.4 pg
MCHC [5]: 33.6%
MCV [5]: 63.7 fL
Mono [5]: 2.6%
Neu [5]: 12.8%
PT [5]: 12.2 s
Plat [5]: 115.5 x10_4/uL
RBC [5]: 632.6 x10_4/ul
Ret [5]: 5.2%
WBC [5]: 104.4 x10_2/uL
KIDNEY_L [5]: 1 g
KIDNEY_R [5]: 1 g
KIDNEY_TOTAL [5]: 1.9 g
LIVER [5]: 10.6 g
A/G [5]: 1.7
ALP [5]: 952 IU/L
ALT [5]: 42 IU/L
AST [5]: 65.4 IU/L
BUN [5]: 15 mg/dL
CRE [5]: 0.4 mg/dL
Ca [5]: 10.9 mg/dL
Cl [5]: 103 meq/L
DBIL [5]: 0.1 mg/dL
GLC [5]: 187.8 mg/dL
IP [5]: 6.9 mg/dL
K [5]: 3.8 meq/L
LDH [5]: 183.6 IU/L
Na [5]: 141.6 meq/L
PL [5]: 153.8 mg/dL
RALB [5]: 3.5 g/dL
TBIL [5]: 0.1 mg/dL
TC [5]: 75.4 mg/dL
TG [5]: 113 mg/dL
TP [5]: 5.6 g/dL
gamma-GTP [5]: 1.4 IU/L
TERMINAL_BW [6]: 265.1 g
TERMINAL_BW [7]: 301.6 g
TERMINAL_BW [8]: 376.3 g
APTT [6]: 19.7 s
Bas [6]: 0.2%
Eos [6]: 0.8%
Fbg [6]: 223 mg/dL
Hb [6]: 13 g/dL
Ht [6]: 38.5%
Lym [6]: 79.4%
MCH [6]: 21 pg
MCHC [6]: 33.7%
MCV [6]: 62.3 fL
Mono [6]: 3%
Neu [6]: 16.4%
PT [6]: 12.5 s
Plat [6]: 124.6 x10_4/uL
RBC [6]: 618 x10_4/ul
Ret [6]: 5.6%
WBC [6]: 123.7 x10_2/uL
APTT [7]: 19.3 s
Bas [7]: 0%
Eos [7]: 1%
Fbg [7]: 224.6 mg/dL
Hb [7]: 14.3 g/dL
Ht [7]: 40.2%
Lym [7]: 78%
MCH [7]: 21 pg
MCHC [7]: 35.6%
MCV [7]: 59.2 fL
Mono [7]: 2.2%
Neu [7]: 17.8%
PT [7]: 12.3 s
Plat [7]: 122 x10_4/uL
RBC [7]: 679.6 x10_4/ul
Ret [7]: 3.9%
WBC [7]: 137.4 x10_2/uL
APTT [8]: 23 s
Bas [8]: 0%
Eos [8]: 0.8%
Fbg [8]: 207.8 mg/dL
Hb [8]: 15.2 g/dL
Ht [8]: 43.5%
Lym [8]: 82.6%
MCH [8]: 19.3 pg
MCHC [8]: 34.9%
MCV [8]: 55.4 fL
Mono [8]: 2.4%
Neu [8]: 13.4%
PT [8]: 12.7 s
Plat [8]: 105.5 x10_4/uL
RBC [8]: 786.4 x10_4/ul
Ret [8]: 2.6%
WBC [8]: 115.6 x10_2/uL
KIDNEY_L [6]: 1.1 g
KIDNEY_R [6]: 1.1 g
KIDNEY_TOTAL [6]: 2.2 g
KIDNEY_L [7]: 1.1 g
KIDNEY_R [7]: 1.2 g
KIDNEY_TOTAL [7]: 2.3 g
KIDNEY_L [8]: 1.3 g
KIDNEY_R [8]: 1.3 g
KIDNEY_TOTAL [8]: 2.6 g
LIVER [6]: 12.7 g
LIVER [7]: 13 g
LIVER [8]: 15.8 g
A/G [6]: 1.5
ALP [6]: 816.2 IU/L
ALT [6]: 35.2 IU/L
AST [6]: 60.2 IU/L
BUN [6]: 15.8 mg/dL
CRE [6]: 0.4 mg/dL
Ca [6]: 11 mg/dL
Cl [6]: 102.4 meq/L
DBIL [6]: 0.1 mg/dL
GLC [6]: 196 mg/dL
IP [6]: 7.3 mg/dL
K [6]: 4.1 meq/L
LDH [6]: 155.2 IU/L
Na [6]: 140.6 meq/L
PL [6]: 151.8 mg/dL
RALB [6]: 3.4 g/dL
TBIL [6]: 0.2 mg/dL
TC [6]: 78.4 mg/dL
TG [6]: 116.4 mg/dL
TP [6]: 5.7 g/dL
gamma-GTP [6]: 1.2 IU/L
A/G [7]: 1.4
ALP [7]: 1042 IU/L
ALT [7]: 37 IU/L
AST [7]: 63.6 IU/L
BUN [7]: 15.2 mg/dL
CRE [7]: 0.5 mg/dL
Ca [7]: 10.7 mg/dL
Cl [7]: 102.2 meq/L
DBIL [7]: 0.1 mg/dL
GLC [7]: 193.2 mg/dL
IP [7]: 6.4 mg/dL
K [7]: 3.9 meq/L
LDH [7]: 138.2 IU/L
Na [7]: 140.2 meq/L
PL [7]: 166.4 mg/dL
RALB [7]: 3.5 g/dL
TBIL [7]: 0.2 mg/dL
TC [7]: 81.2 mg/dL
TG [7]: 116.8 mg/dL
TP [7]: 6 g/dL
gamma-GTP [7]: 0.6 IU/L
A/G [8]: 1.4
ALP [8]: 594 IU/L
ALT [8]: 33.6 IU/L
AST [8]: 58.4 IU/L
BUN [8]: 14.6 mg/dL
CRE [8]: 0.5 mg/dL
Ca [8]: 10.4 mg/dL
Cl [8]: 103.6 meq/L
DBIL [8]: 0.09 mg/dL
GLC [8]: 213.6 mg/dL
IP [8]: 6.4 mg/dL
K [8]: 3.9 meq/L
LDH [8]: 147 IU/L
Na [8]: 141 meq/L
PL [8]: 137.4 mg/dL
RALB [8]: 3.4 g/dL
TBIL [8]: 0.2 mg/dL
TC [8]: 69 mg/dL
TG [8]: 98.8 mg/dL
TP [8]: 5.8 g/dL
gamma-GTP [8]: 1.4 IU/L
